In ChEMBL document CHEMBL1949659, “The green tea polyphenol (2)-epigallocatechin-3-gallate (EGCG) is not a β-secretase inhibitor” (Bioorg Med Chem Lett, 2012):

What was measured:
CHO = experiment: Cytotoxicity against CHO cells transfected with human BACE1 and human APP with Swedish mutation at 1 nM to 10 uM by MTT assay; type: cell-based, Cricetulus griseus; details: chinese hamster, 0.001 µM
Beta-secretase 1 [1] = target: T1, Beta-secretase 1 (Homo sapiens, UniProt P56817)
Beta-secretase 1 [2] = target: T1, Beta-secretase 1; remark: listed apart in the source
Beta-secretase 1 [3] = target: T1, Beta-secretase 1; remark: listed apart in the source
Beta-secretase 1 [4] = target: T1, Beta-secretase 1; experiment: Inhibition of recombinant human BACE1 using Eu-CEVNLDAEFK-Qsy7 as substrate by HTRF assay
Beta-secretase 1 [5] = target: T1, Beta-secretase 1; remark: listed apart in the source
Beta-secretase 1 [6] = target: T1, Beta-secretase 1; remark: listed apart in the source
Beta-secretase 1 [7] = target: T1, Beta-secretase 1; remark: listed apart in the source
Beta-secretase 1 [8] = target: T1, Beta-secretase 1; remark: listed apart in the source
Beta-secretase 1 [9] = target: T1, Beta-secretase 1; remark: listed apart in the source
Beta-secretase 1 [10] = target: T1, Beta-secretase 1; remark: listed apart in the source
Beta-secretase 1 [11] = target: T1, Beta-secretase 1; remark: listed apart in the source
Beta-secretase 1 [12] = target: T1, Beta-secretase 1; remark: listed apart in the source
Beta-secretase 1 [13] = target: T1, Beta-secretase 1; remark: listed apart in the source
Mus musculus [14] = experiment: Antialzheimer's disease activity in mouse hippocampus assessed as inhibition of beta-secretase mediated amyloid beta1-42 production at 3 mg/kg; type: functional
Mus musculus [15] = experiment: Antialzheimer's disease activity in mouse hippocampus assessed as inhibition of beta-secretase mediated amyloid beta1-42 production at 1.5 mg/kg; type: functional
Mus musculus [16] = experiment: Antialzheimer's disease activity in mouse cortex assessed as inhibition of beta-secretase mediated amyloid beta1-42 production at 1.5 mg/kg; type: functional
Mus musculus [17] = experiment: Antialzheimer's disease activity in mouse cortex assessed as inhibition of beta-secretase mediated amyloid beta1-42 production at 3 mg/kg; type: functional

T1 sequence (P56817 whole entry): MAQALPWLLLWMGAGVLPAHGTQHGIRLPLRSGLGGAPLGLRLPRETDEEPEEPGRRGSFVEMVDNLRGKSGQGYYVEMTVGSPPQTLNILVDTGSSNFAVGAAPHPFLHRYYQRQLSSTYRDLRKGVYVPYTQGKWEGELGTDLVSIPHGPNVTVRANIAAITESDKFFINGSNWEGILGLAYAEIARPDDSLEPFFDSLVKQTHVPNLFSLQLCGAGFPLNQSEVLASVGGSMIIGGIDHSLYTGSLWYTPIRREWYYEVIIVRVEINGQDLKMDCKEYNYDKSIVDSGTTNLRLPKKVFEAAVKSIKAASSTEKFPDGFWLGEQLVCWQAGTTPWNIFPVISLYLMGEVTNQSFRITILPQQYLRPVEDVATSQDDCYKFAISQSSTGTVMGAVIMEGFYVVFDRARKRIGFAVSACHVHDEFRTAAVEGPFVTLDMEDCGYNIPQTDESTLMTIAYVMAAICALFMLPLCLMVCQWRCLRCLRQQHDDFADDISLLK

Compound: C[C@@H](NC(=O)c1cc(C(=O)N[C@@H](Cc2ccccc2)[C@H](O)CNC2CC2)cc(N(C)S(C)(=O)=O)c1)c1ccccc1
- Activity (CHO): Non-toxic

Compound: O=C(Nc1ccc(N(CCO)CCO)cc1)c1cnc2cc(Cl)cc(Cl)c2c1O
- RFU (Beta-secretase 1 [1]): 13.7
- RFU (Beta-secretase 1 [2]): 87.4
- RFU (Beta-secretase 1 [3]): 72
- IC50 (Beta-secretase 1 [4]): 2.27 µM
- RFU (Beta-secretase 1 [5]): 65.1
- RFU (Beta-secretase 1 [6]): 87.4
- RFU (Beta-secretase 1 [7]): 26.2
- RFU (Beta-secretase 1 [8]): 90.1
- Activity (CHO): Non-toxic
- RFU (Beta-secretase 1 [9]): 80.3
- RFU (Beta-secretase 1 [10]): 4.36
- RFU (Beta-secretase 1 [11]): 24.9
- RFU (Beta-secretase 1 [12]): 77.2
- RFU (Beta-secretase 1 [13]): 39.1

Compound: CSc1ccc2c(O)c(C(=O)Nc3ccc(N(CCO)CCO)cc3)cnc2c1
- RFU (Beta-secretase 1 [1]): 14.2
- RFU (Beta-secretase 1 [2]): 99.8
- RFU (Beta-secretase 1 [3]): 73
- IC50 (Beta-secretase 1 [4]): 2.81 µM
- RFU (Beta-secretase 1 [5]): 69.4
- RFU (Beta-secretase 1 [6]): 99.8
- RFU (Beta-secretase 1 [7]): 26.8
- RFU (Beta-secretase 1 [8]): 99.8
- Activity (CHO): Non-toxic
- RFU (Beta-secretase 1 [9]): 94.8
- RFU (Beta-secretase 1 [10]): 10.5
- RFU (Beta-secretase 1 [11]): 21.7
- RFU (Beta-secretase 1 [12]): 79
- RFU (Beta-secretase 1 [13]): 36.2

Compound: CSc1cccc2c(O)c(C(=O)Nc3ccc(N(CCO)CCO)cc3)cnc12
- RFU (Beta-secretase 1 [1]): 20.2
- RFU (Beta-secretase 1 [2]): 97.7
- RFU (Beta-secretase 1 [3]): 67.3
- IC50 (Beta-secretase 1 [4]): 3.84 µM
- RFU (Beta-secretase 1 [5]): 63.4
- RFU (Beta-secretase 1 [6]): 98.7
- RFU (Beta-secretase 1 [7]): 26.2
- RFU (Beta-secretase 1 [8]): 98.3
- Activity (CHO): Non-toxic
- RFU (Beta-secretase 1 [9]): 81.5
- RFU (Beta-secretase 1 [10]): 6.14
- RFU (Beta-secretase 1 [11]): 22.2
- RFU (Beta-secretase 1 [12]): 73.8
- RFU (Beta-secretase 1 [13]): 34.1

Compound: O=C(O[C@@H]1Cc2c(O)cc(O)cc2O[C@@H]1c1cc(O)c(O)c(O)c1)c1cc(O)c(O)c(O)c1 [EPIGALOCATECHIN GALLATE]
- inhibition in vivo at 3 mg/kg (Mus musculus [14]): 39.8%
- inhibition in vivo at 1.5 mg/kg (Mus musculus [15]): 25.5%
- inhibition in vivo at 1.5 mg/kg (Mus musculus [16]): 18.6%
- Activity (CHO): Non-toxic
- inhibition in vivo at 3 mg/kg (Mus musculus [17]): 51.2%
